Patent US20240391930A1, “SPIROCYCLIC BICYCLIC MODULATORS OF CHOLESTEROL BIOSYNTHESIS AND THEIR USE FOR PROMOTING REMYELINATION” (GENENTECH, INC., priority 2021, published 2024)
pEC50, pKi: −log10 of the molar value.

Legend:
[1] = target: T1, human emopamil binding protein and human 7-dehydrocholesterol reductase (hEBP-DHCR7) (Homo sapiens, UniProt Q15125); assay: hEBP-DHCR7 radioligand filtration binding assay; details: membranes of HEK293 co-expressing hEBP and DHCR7; [3H] 2-thia-6-azaspiro[3.4]octane radioligand; 8 doses 0.06 to 5000 nM
T1 construct: expressed in transfected cells; host or cells: HEK 293 cells, transient transfection with 2 DNA constructs
Protocol: Membrane Preparation: human emopamil binding protein and human 7-dehydrocholesterol reductase co-expressing cells were generated by transient transfecting host human embryonic kidney (HEK) 293 cells with 2 DNA constructs containing each protein's coding sequence. Cells were suspension cultured at 37° C. with 5% CO2 in […] 293 Expression Medium (Thermofisher). Whole cell membrane was prepared by harvesting the cell pellet, adding cold membrane buffer (50 mM Tris, pH7.5, lx Roche COMPLETE EDTA-free protease inhibitor cocktail) 10 times volume of the cell pellets weight, lysing cell pellet on ice by using Dounce homogenizer, spinning at 200 g 4° C. for 15 min, collecting supernatant and spinning again at 25000 g 4° C. for 50 min, transferring pellet to Dounce homogenizer, re-suspending pellet by homogenizing in membrane buffer on ice to reach ˜25 mg/mL, then keeping whole cell membrane aliquots at −80° C.
Compounds were prepared in a 96-well U bottom plate using an Echo550 machine and 10 mM compound DMSO stock solution, followed by an 8-dose 5-fold serial dilutions protocol with final testing compound concentration ranging from 0.06 to 5000 nM, with DMSO back fill to 100 nL/well and n=2. […] The UniFilter-96 GF/B plates were pre-treated by adding 50 µl/well of 0.3% (v/v) PEI to UniFilter-96 GF/B plates. The plates were sealed and incubated at 4° C. for 3 hrs. Then, the plates were washed with ice-cold assay buffer 3 times. The radioligand binding assay was prepared by adding assay buffer diluted hEBP-DHCR7 membrane at 66.7 μg/ml×150 l/well into the 96-well compound plate to reach 10 μg membrane per well. Then, the assay buffer diluted [3H]—((S)-6-(2-Methyl-3-(6-(trifluoromethyl)pyridin-3-yl)propyl)-2-thia-6-azaspiro[3.4]octane 2,2-dioxide or (R)-6-(2-Methyl-3-(6-(trifluoromethyl)pyridin-3-yl)propyl)-2-thia-6-azaspiro[3.4]octane 2,2-dioxide) was added at 25 nM×50 l/well. Following this, the plate was centrifuged at 1000 rpm for 30 secs. The plate was then sealed and agitated at 600 rpm at 22° C. for 5 min, and then incubated at 22° C. for 3 hrs. The incubation was stopped by transferring the binding solution to the pre-treated UniFilter-96 GF/B plate, vacuum filtrated, and then washed four times with ice-cold assay buffer. Following this, the plates were dried at 37° C. for 45 min. The plates were then sealed at the bottom. 40 µl/well of scintillation cocktail was added to the plates. A MicroBeta2 microplate counter was then used to read the plate and analyze the data. For reference and test compounds, the results are expressed as % Inhibition, using the normalization equation: N=100−100×(U−C2)/(C1−C2), where U is the unknown value, C1 is the average of high controls, and C2 is the average value of low controls. The IC50 was determined by fitting percentage of inhibition as a function of compound concentrations with Hill equation using XLfit. Results are expressed as hEBP-DHCR7 Ki (uM) in Table 4. Ki was calculated as described above; * indicates isolated isomer or isomers, but that the stereochemistry has not been assigned.

[2] = system: zymostenol accumulation in EpiSC-derived OPCs (EBP); assay: GC/MS-based sterol profiling (zymostenol accumulation); assay type: cell-based; details: Mus musculus, 24 hours, 8 doses from 0.15 nM to 333 nM, read-out: Zymostenol GCMS EC50
Protocol: (§1) To assess effects of treatments on OPCs, all treatments were assayed in two or more independent platings of epiblast stem cell-derived OPCs (EpiSC). EpiSC-derived OPCs were obtained using in vitro differentiation protocols and culture conditions described previously (Najm et al, 2011, Nature Methods). OPCs were expanded and frozen down in aliquots. OPCs were thawed into growth conditions for at least one passage before use in further assays.
Sterols were monitored using a modified Folch wash protocol (Hubler et al, 2018, Nature). EpiSC-derived OPCs were plated at 100,000 cells per well in PO- and laminin-coated 96-well plates in N2B27 media without growth factors. After 24 hours, cells were rinsed with saline and plates were frozen. Cholesterol-d7 standard was then added to each well before drying under nitrogen stream and derivatization with 55 μl of bis(trimethylsilyl) trifluoroacetamide. After derivatization, 2 μl were analyzed by gas chromatography/mass spectrometry using an Agilent 5973 Network Mass Selective Detector equipped with a 6890 gas chromatograph system and a HP-5MS capillary column (30 m×0.25 mm×[…]). Samples were analyzed in full scan mode using electron impact ionization; ion fragment peaks were integrated to calculate sterol abundance, and quantitation was relative to cholesterol-d7. The following ion fragments were used to quantitate each metabolite: cholesterol-d7 (465), FF-Mas (482), cholesterol (368), zymostenol (458), zymosterol (456), Desmosterol (456, 343), 7-dehydrocholesterol (456, 325), lanosterol (393), lathosterol (458), 14-dehydrozymostenol (456, 351). […] All standards were obtained from Avanti Polar Lipids unless otherwise indicated. Calibration curves were generated by injecting varying concentrations of sterol standards and maintaining a fixed amount of cholesterol-D7. For normalized zymostenol accumulation results, the total amount of zymostenol measured after drug treatment was divided by the total amount of zymostenol accumulated after 24 hr treatment with 100 nM positive control reference.

EpiSC-derived OPCs = assay: In vitro phenotypic screening of OPCs (MBP high-content imaging); assay type: cell-based; details: Mus musculus, 72 h; percentage of MBP-positive oligodendrocytes, 3 days, 0.5 nM to 1000 nM; read-out: OPC EC50
Protocol: as §1
EpiSC-derived OPCs were grown and expanded in poly-L-ornithine (PO) and laminin-coated flasks in N2B27 media (DMEM/F12 (Gibco), N2-MAX (R&D Systems), B-27 (ThermoFisher), and GlutaMax (Gibco)) supplemented with FGF2 ([…], R&D systems, 233-FB-025) and PDGF-AA ([…], R&D systems, 233-AA-050) before harvesting for experiments. The cells were seeded onto poly-L-ornithine or poly-D-lysine coated CellCarrier Ultra plates (PerkinElmer) coated with laminin (Sigma, L2020) at a density of 150,000/cm^2 in N2B27 media without growth factors. For dose-response testing, a 1000× compound stock in dimethyl sulphoxide (DMSO) was added to assay plates, resulting in 8-point dose curves with final concentrations between 1000 nM and 0.5 nM. Positive controls and DMSO vehicle controls were included in each assay plate. Cells were incubated under standard conditions (37° C., 5% CO2) for 3 days and fixed with 4% paraformaldehyde (PFA) in phosphate buffered saline (PBS) for 20 min. Fixed plates were washed with PBS, permeabilized with 0.1% Triton X-100, and blocked with 10% donkey serum (v/v) in PBS for 40 min. Then, cells were labelled with MBP antibodies (Abcam, ab7349; 1:200) for 2 h at room temperature, washed with PBS, and stained with Alexa Fluor conjugated secondary antibodies (1:500) for 45 min. Nuclei were visualized by DAPI staining (Sigma; 1 μg/ml), followed by further PBS washes.
Cells and cell culture plates were imaged on the Operetta High Content Imaging and Analysis system (PerkinElmer). Analysis (PerkinElmer Harmony and Columbus software) began by identifying intact nuclei stained by DAPI. The peri-nuclear region of each cell was then cross-referenced with the […] (MBP) stain to identify oligodendrocyte nuclei, and from this the percentage of oligodendrocytes was calculated.

T1 sequence (Q15125 whole entry): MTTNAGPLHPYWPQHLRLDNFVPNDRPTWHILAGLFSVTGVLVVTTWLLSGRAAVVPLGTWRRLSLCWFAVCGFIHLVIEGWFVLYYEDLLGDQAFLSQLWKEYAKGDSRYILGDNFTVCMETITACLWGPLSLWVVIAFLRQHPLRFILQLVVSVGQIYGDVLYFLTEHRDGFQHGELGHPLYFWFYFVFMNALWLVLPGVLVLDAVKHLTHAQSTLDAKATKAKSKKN

Row | Structure (SMILES) | pKi [1] | pEC50 [2] | pEC50 (EpiSC-derived OPCs)
1 | CC(C)n1nc(C2CCC(F)(F)CC2)cc1[C@H]1[C@@H]2C[C@@H](N3CCC4(C3)CS(=O)(=O)C4)C[C@@H]21 [Compound 108, 6-((1R,3s,5S,6r)-6-(3-(4,4-Difluorocyclohexyl)-1-isopropyl-1H-pyrazol-5-yl)bicyclo[3.1.0]hexan-3-yl)-2-thia-6-azaspiro[3.4]octane 2,2-dioxide] | 7.67 | 7.97 | 6.99
2 | C[C@H](C(F)F)n1nc(C(F)(F)F)cc1[C@H]1[C@@H]2C[C@H](N3CCC4(CC3)CS(=O)(=O)C4)C[C@@H]21 (racemic) [Compound 71*, 7-((1R,3R,5S,6r)-6-(1-((R)-1,1-difluoropropan-2-yl)-3-(trifluoromethyl)-1H-pyrazol-5-yl)bicyclo[3.1.0]hexan-3-yl)-2-thia-7-azaspiro[3.5]nonane 2,2-dioxide and 7-((1R,3S,5S,6r)-6-(1-((S)-1,1-difluoropropan-2-yl)-3-(trifluoromethyl)-1H-pyrazol-5-yl)bicyclo[3.1.0]hexan-3-yl)-2-thia-7-azaspiro[3.5]nonane 2,2-dioxide] | 7.75 | 7.77 | 7.12
3 | CC(C)n1nc([C@H]2CC[C@H](C(F)(F)F)CC2)cc1[C@H]1[C@@H]2C[C@@H](N3CCC4(C3)CS(=O)(=O)C4)C[C@@H]21 (single isomer, unassigned) [Compound 107] | 7.80 | 8.12 | 7.28
4 | CCn1nc(-c2ccccn2)cc1[C@H]1[C@@H]2C[C@H](N3CCC4(C3)CS(=O)(=O)C4)C[C@@H]21 [Compound 73, 6-((1R,3r,5S,6r)-6-(1-ethyl-3-(pyridin-2-yl)-1H-pyrazol-5-yl)bicyclo[3.1.0]hexan-3-yl)-2-thia-6-azaspiro[3.4]octane 2,2-dioxide] | 7.23 | 7.49 | 7.04
5 | O=S1(=O)CC2(CCN([C@@H]3C[C@@H]4[C@H](C3)[C@H]4c3cc(C(F)(F)F)nn3CC(F)F)CC2)C1 (single isomer, unassigned) [Compound 62*] | 6.87 | 7.92 | 7.22
6 | CC(C)n1nc(-c2cnc(C(F)(F)F)nc2)cc1[C@H]1[C@@H]2C[C@@H](N3CCC4(C3)CS(=O)(=O)C4)C[C@@H]21 (single isomer, unassigned) [Compound 102] | 7.37 | 7.85 | 7.19
7 | CC(C)(C)n1nc(-c2cccc(C(F)(F)F)c2)nc1[C@H]1[C@@H]2C[C@@H](N3CCC4(C3)CS(=O)(=O)C4)C[C@@H]21 (single isomer, unassigned) [Compound 75] | 7.83 | 8.66 | 8.21
8 | CC(C)n1nc(-c2cccc(C(F)(F)F)c2)cc1[C@H]1[C@@H]2C[C@H](N3CCC4(C3)CS(=O)(=O)C4)C[C@@H]21 (single isomer, unassigned) [Compound 1] | 7.88 | 8.92 | 8.89
9 | CC(C)n1nc(-c2cncc(C(F)(F)F)c2)cc1[C@H]1[C@@H]2C[C@@H](N3CCC4(C3)CS(=O)(=O)C4)C[C@@H]21 (single isomer, unassigned) [Compound 3] | 7.79 | 8.41 | 7.47
10 | CCn1nc(-c2ccnc(C(F)(F)F)c2)cc1[C@H]1[C@@H]2C[C@@H](N3CCC4(C3)CS(=O)(=O)C4)C[C@@H]21 [Compound 26, 6-((1R,3s,5S,6r)-6-(1-ethyl-3-(2-(trifluoromethyl)pyridin-4-yl)-1H-pyrazol-5-yl)bicyclo[3.1.0]hexan-3-yl)-2-thia-6-azaspiro[3.4]octane 2,2-dioxide] | 7.70 | 8.36 | 8.19
11 | CC(C)n1nc(-c2cncc(C(F)(F)F)c2)cc1[C@H]1[C@@H]2C[C@@H](N3CC[C@@]4(CCS(=O)(=O)C4)C3)C[C@@H]21 (single isomer, unassigned) [Compound 7*] | 7.76 | 8.05 | 7.43
12 | CC(C)n1nc(-c2cncc(C(F)(F)F)c2)cc1[C@H]1[C@@H]2C[C@@H](N3CC[C@]4(CCS(=O)(=O)C4)C3)C[C@@H]21 (single isomer, unassigned) [Compound 8*] | 7.74 | 8.44 | 8.60
